Data on 3 substances can be found in patent publication US5814610A, “Osteogenic growth oligopeptides and pharmaceutical compositions containing them” (Yissum Research Development Company of the Hebrew …, priority 1993, dated 1998).

No end group written: not given here.

Assay [1] concerns osteoblastic MC3T3E1 cells. As to the kind of experiment: Proliferative activity: osteoblastic MC3T3E1 cell number in vitro. The assay is classed as cell-based. Conditions: for Proliferative effect on cell number (magnitude, compared with positive sOGP control): MC3T3E1 cells.
A further assay has as its system NIH 3T3 fibroblasts. As to the kind of experiment: Proliferative activity: fibroblastic NIH 3T3 cell number in vitro. The assay is classed as cell-based. To be noted: NIH 3T3 cells.
For assay [2] the following is noted: Kharchenko et al.; cited from earlier work.

Take “Ac-MYGFGG [Ac-Met^0 [OGP(10-14)], Ac--Met--Tyr--Gly--Phe--Gly--Gly]”: the “Peptide concentration of peak proliferative activity” value in assay [1] (MC3T3E1 cell number) was 10^-13 M. For the same substance, the “Proliferative effect on cell number (magnitude, compared with positive sOGP control)” value (in assay [1]; in the assay on NIH 3T3 fibroblasts) was “closely similar to that of positive sOGP controls” each time.

On to Gly--Gly [OGP(13-14)], for which the “Proliferative effect on cell number (magnitude, compared with positive sOGP control)” value (in assay [1]; with NIH 3T3 fibroblasts) was “did not affect” each time. Moreover, the “Proliferative activity, Percent Activity of Full Length Peptide [OGP(1-14)], Mean” value in assay [1] (MC3T3 E1 cells, mean of experiments) is listed as 0%; in the assay on NIH 3T3 fibroblasts (mean of experiments), 0%.

Turning to “Tyr--Gly--Phe--Gly--Gly (YGFGG; printed: Tyr--Gly--Phe--Gly--Gly) [OGP(10-14)]”, in assay [2], the “Analgesic and opioid activity” value was “analgesic and opiod activity”.
